Consider three compounds from US8946201B2, “Methods for inhibiting TGF-β” (Saint Louis University, priority 2007, dated 2015).

Test [1] concerns PAI-1 expression. The experiment in a line: TGF-β1-induced PAI-1 expression, Northern blot, Mv1Lu cells. Particulars: for enhancement of PAI-1 expression: 1 μM, 16 hr. The test is classed as cell-based, mink. The procedure:
(A, B, C, D, E, F) Cells were treated with 50 μg/ml cholesterol (A, B, C, D) and 50 μg/ml LDL (D) at 37° C. for 1 hr or with 1 μM fluvastatin or lovastatin (E) or several concentrations of fluvastatin (F) at 37° C. for 16 hr and then further incubated with increasing concentrations (as indicated) of TGF-β1 (A, B, C, E) or 50 pM TGF-β1 (D,F) for 2 hr. Northern blot analysis of PAI-1 and G3PDH was performed. A representative of a total of three analyses is shown (a). The relative intensities of the transcripts were quantified with a PhosphoImager. The ratio of the relative intensities of PAI-1 and G3PDH transcripts in cells treated without TGF-β1 and cholesterol, LDL or statins on the blot was taken as 1 fold or 100% of PAI-1 expression. The quantitative data from three independent analyses is shown (b). […] (G) Mv1Lu cells stably expressing a luciferase reporter gene driven by the PAI-1 promoter (MLECs-clone 32) were treated with increasing concentrations (as indicated) of cholesterol at 37 EC for 1 hr (a) or with 1 μM lovastatin at 37° C. for 16 hr (b) and then further incubated with 50 pM TGF-β for 7 hr. The luciferase activity in cells treated without cholesterol was taken as 100% (a). […] (H) Cells were incubated with 0.0625 and 0.125 pM TGF-β1 in the presence of increasing concentrations of cholesterol, as indicated. […] The experiments were carried out in triplicate.

For test [2], the system named is TβR-I and TβR-II. The experiment in a line: Lipid raft / non-lipid raft localization by sucrose density gradient ultracentrifugation, Mv1Lu cells. The test is classed as cell-based, mink. Particulars: for plasma membrane microdomain localization of TβR-II (FIG. 5F): 1 μM statin 16 hr, nystatin 25 μg/ml or cholesterol 50 μg/ml 1 hr. Here is the method: (A, B, C, D) Cells were treated with or without 50 μg/ml cholesterol (A,B,C,D) or several concentrations of cholesterol, as indicated in the presence and absence of 1% β-CD (E) at 37° C. for 1 hr and further incubated with (C,D) and without (A,B) 50 pM TGF-β1 for 1 hr. The cell lysates from these treated cells were subjected to sucrose density gradient ultracentrifugation. After ultracentrifugation, fractions were collected and analyzed by 7.5% SDS-PAGE followed by Western blot analysis using antibodies to TβR-I, TβR-II and caveolin-1. […] Fractions 4 and 5 represent fractions containing lipid rafts/caveolae whereas fractions 7 and 8 represent non-lipid raft fractions.
(F, G) Cells were treated with or without 1 μM lovastatin/fluvastatin or nystatin (25 μg/ml)/cholesterol (50 μg/ml) at 37° C. for 16 hr or 1 hr, respectively. The treated cells were directly analyzed by sucrose density gradient ultracentrifugation analysis (F) or further incubated with 50 pM TGF-β at 37° C. for several time periods as indicated (G). Western blot analysis of the sucrose density gradient fractions (F) and of TGF-β1-treated cell lysates (G) was performed using antibody to TβR-II. The relative levels of TβR-II and α-actin were quantified by densitometry. Fractions ⅘ and 7 represent lipid raft/caveolae and non-lipid raft fractions, respectively. The asterisk (*) indicates the increased level of TβR-II in the fraction (F). The ratio of the relative intensities of TβR-II and α-actin in cells treated without TGF-β1 was taken as 100% of the TβR-II level. A representative of a total of three independent analyses is shown (G, top). The quantitative data from three independent analyses is shown (G, bottom). The data bar represents the mean±S.D.
Mv1Lu, CHO-K1, or NRK cells were grown to near confluence in 100-mm dishes (5-10×10^6 per dish). Cells were incubated with cholesterol ([…]) at 37° C. for 1 hours and then incubated with TGF-β1 (100 pM) for 1 hr. After two washes with ice-cold phosphate-buffered saline, cells were scraped into 0.85 ml of 500 mM sodium carbonate, pH 11.0. Homogenization was carried out with 10 strokes of a tight-fitting Dounce homogenizer followed by three 20-s bursts of ultrasonic disintegrator, (Soniprep 150; Fisher Scientific) to disrupt cellular membranes as described previously (32). The homogenates were adjusted to 45% sucrose by addition of 0.85 ml of 90% sucrose in 25 mM 2-(N-morpholino) ethanesulfonic acid, pH 6.5, 0.15 M NaCl (MBS), and placed at the bottom of an ultracentrifuge tube. […] Ten 0.5-ml fractions were collected from the top of the tubes, and a portion of each fraction was analyzed by SDS-PAGE followed by Western blot analysis using antibodies to TβR-I and TβR-II and caveolin-1. […]

Take `CC(C)CCC[C@@H](C)[C@H]1CC[C@H]2[C@@H]3CC=C4C[C@@H](O)CC[C@]4(C)[C@H]3CC[C@]12C` [cholesterol]: the “suppression of TGF-β1-stimulated PAI-1 expression” value in test [1] (50 μg/ml, TGF-β1 2 to 100 pM, Mv1Lu cells) is on record as 65-70%. Besides, the “plasma membrane microdomain localization of TβR-II (FIG. 5F)” value (“plasma membrane microdomain localization” for short) in test [2] is on record as “increased the localization of TβR-II in lipid rafts/caveolae”. In addition, the “localization of TβR-I and TβR-II in plasma membrane fractions” value in test [2] (50 μg/ml, 1 hr, fractions 4 and 5) is given as “enriched in the lipid raft/caveolae fractions”.
Consider `CC[C@H](C)C(=O)O[C@H]1C[C@@H](C)C=C2C=C[C@H](C)[C@H](CC[C@@H]3C[C@@H](O)CC(=O)O3)[C@H]21` [lovastatin, reference compound], for which the “enhancement of PAI-1 expression” value in test [1] (10 pM TGF-β1, Mv1Lu cells) is listed as “did not enhance”; in test [1] (50 pM TGF-β1, Mv1Lu cells) it was 3 fold. In test [2], the “plasma membrane microdomain localization” value is recorded as “increased the localization of TβR-II in non-lipid raft microdomains”.
With `C[C@@H]1[C@H](O)[C@@H](C)/C=C/C=C/CC/C=C/C=C/C=C/C=C/C(O[C@H]2O[C@H](C)[C@@H](O)[C@H](N)[C@@H]2O)CC2O[C@](O)(CC(O)C(O)CCC(O)CC(O)CC(O)CC(=O)O[C@H]1C)CC(O)C2C(=O)O` (some centres unmarked) [nystatin, reference compound], in test [1] (25 μg/ml nystatin present, data not shown), the “effect on the LDL and cholesterol suppression of PAI-1 expression” value is reported as “abolished”. Besides, the “plasma membrane microdomain localization” value in test [2] was “increased the localization of TβR-II in non-lipid raft microdomains”.
